Experimental data published in ChEMBL document CHEMBL1201862, “PubChem BioAssay data set” (2004).
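Where inhibition never reached the appropriate level, the endpoint shown equals the highest concentration tested. Otherwise, values were interpolated linearly from a five-concentration, 48-hour dose response in 96-well plates. GI50 = concentration required for 50% inhibition of growth.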 Active and inactive are the calls of the source. No stated cut-off is given here; in the data, active = GI50 up to about 1.1 µM and inactive = higher.

Tests used:
Assay in all cases: NCI-60 cell line screen, 48 h
ACHN = tested on: ACHN
SW-620 = tested on: SW-620
OVCAR-8 = tested on: OVCAR-8
MOLT-4 = tested on: MOLT-4
786-0 = tested on: 786-0
EKVX = tested on: EKVX
OVCAR-4 = tested on: OVCAR-4
T47D = tested on: T47D
SN12C = tested on: SN12C
HCC 2998 = tested on: HCC 2998
A549 = tested on: A549
NCI/ADR-RES = tested on: NCI/ADR-RES
MDA-MB-435 = tested on: MDA-MB-435
LOX IMVI = tested on: LOX IMVI
U-251 = tested on: U-251
SK-MEL-2 = tested on: SK-MEL-2
SF-539 = tested on: SF-539
HCT-116 = tested on: HCT-116
IGROV-1 = tested on: IGROV-1
CAKI-1 = tested on: CAKI-1

| SMILES | GI50 (ACHN) | GI50 (SW-620) | GI50 (OVCAR-8) | GI50 (MOLT-4) | GI50 (786-0) | GI50 (EKVX) | GI50 (OVCAR-4) | GI50 (T47D) | GI50 (SN12C) | GI50 (HCC 2998) | GI50 (A549) | GI50 (NCI/ADR-RES) | GI50 (MDA-MB-435) | GI50 (LOX IMVI) | GI50 (U-251) | GI50 (SK-MEL-2) | GI50 (SF-539) | GI50 (HCT-116) | GI50 (IGROV-1) | GI50 (CAKI-1) |
| --- | --- | --- | --- | --- | --- | --- | --- | --- | --- | --- | --- | --- | --- | --- | --- | --- | --- | --- | --- | --- |
| O=C1C(Sc2ccc3ccccc3c2)=C(Sc2ccc3ccccc3c2)C(=O)c2ccccc21 | 4.55 µM (inactive) | 4.8 µM (inactive) | 10.5 µM (inactive) | 2.32 µM (inactive) | 12.7 µM (inactive) | 10.5 µM (inactive) | 3.47 µM (inactive) | 1.76 µM (inactive) | 12.1 µM (inactive) | 5.38 µM (inactive) | 4.72 µM (inactive) | 13.2 µM (inactive) | 17.7 µM (inactive) | 11.4 µM (inactive) | 6.21 µM (inactive) | 5.53 µM (inactive) | 10.2 µM (inactive) | 7.59 µM (inactive) |  |  |
| O=C(CNc1ccc(Cl)cc1Cl)Nn1c(-c2ccccc2)nc2ccccc2c1=O | 17.6 µM (inactive) | 16.2 µM (inactive) | 35 µM (inactive) | 5.14 µM (inactive) | 16.8 µM (inactive) | 19.2 µM (inactive) | 13.9 µM (inactive) | 14.6 µM (inactive) | 16.1 µM (inactive) | 17.7 µM (inactive) | 30.5 µM (inactive) | 20.3 µM (inactive) | 14.9 µM (inactive) | 9.95 µM (inactive) | > 10 µM (inactive) |  | 19.6 µM (inactive) | 16.7 µM (inactive) | 15.2 µM (inactive) |  |
| COC(=O)C(CCc1ccccc1I)C1=CCC2(CC1)OCCO2 (stereo unspecified) | 79.3 µM (inactive) | 40.4 µM (inactive) | 42 µM (inactive) | 49.8 µM (inactive) | 51.3 µM (inactive) | 70.8 µM (inactive) | 40.1 µM (inactive) | 15.8 µM (inactive) |  | 33.6 µM (inactive) | 31 µM (inactive) | 24.6 µM (inactive) | 27.1 µM (inactive) | 25.8 µM (inactive) | 61.8 µM (inactive) | 41.2 µM (inactive) | > 100 µM (inactive) |  | 96.2 µM (inactive) | 95.3 µM (inactive) |
| Cc1oc(N)c(S(=O)(=O)/C(C#N)=C/c2ccccc2[N+](=O)[O-])c1C | 25.4 µM (inactive) | 26.6 µM (inactive) |  | 22.4 µM (inactive) | 30.5 µM (inactive) | 33.7 µM (inactive) | 38.5 µM (inactive) | 27 µM (inactive) | 22.9 µM (inactive) | 32.1 µM (inactive) | 25.2 µM (inactive) | 27.3 µM (inactive) | 32.7 µM (inactive) | 14 µM (inactive) | 19.5 µM (inactive) | 37.2 µM (inactive) | 25.5 µM (inactive) | 20.8 µM (inactive) | 24.9 µM (inactive) | 22.6 µM (inactive) |
| CSCCC(NC(=O)C(Cc1c[nH]c2ccccc12)NC(=O)CCNC(=O)OC(C)(C)C)C(=O)NC(CC(=O)O)C(=O)NC(Cc1ccccc1)C(N)=O (stereo unspecified) |  | > 50 µM (inactive) |  | > 50 µM (inactive) | > 50 µM (inactive) | > 50 µM (inactive) |  | > 50 µM (inactive) | > 50 µM (inactive) | > 50 µM (inactive) | > 50 µM (inactive) | > 50 µM (inactive) | > 50 µM (inactive) | > 50 µM (inactive) | > 50 µM (inactive) | > 50 µM (inactive) | > 50 µM (inactive) | > 50 µM (inactive) | > 50 µM (inactive) | > 50 µM (inactive) |
| [N-]=[N+]=NC(c1cn(C2CC(O)C(CO)O2)c(=O)[nH]c1=O)C(Cl)I (stereo unspecified) | > 100 µM (inactive) | > 100 µM (inactive) | > 100 µM (inactive) | > 100 µM (inactive) | > 100 µM (inactive) | > 100 µM (inactive) | > 100 µM (inactive) | > 100 µM (inactive) | > 100 µM (inactive) | > 100 µM (inactive) | > 100 µM (inactive) | > 100 µM (inactive) | > 100 µM (inactive) |  | > 100 µM (inactive) | > 100 µM (inactive) | > 100 µM (inactive) | > 100 µM (inactive) | > 100 µM (inactive) |  |
| CC(C)(C)c1cc(C=C(C#N)C#N)cc(C(C)(C)C)c1O [TYRPHOSTIN A9] | 0.356 µM (active) | 0.546 µM (active) | 0.303 µM (active) | 0.374 µM (active) | 0.652 µM (active) |  | 0.724 µM (active) | 0.135 µM (active) | 0.191 µM (active) | 0.456 µM (active) | 0.316 µM (active) | 0.299 µM (active) | 0.76 µM (active) | 0.641 µM (active) | 0.692 µM (active) | 0.365 µM (active) | 0.259 µM (active) | 0.277 µM (active) | 0.682 µM (active) | 0.738 µM (active) |
| O=S1(=O)OCCOS(=O)(=O)C1F | > 100 µM (inactive) | > 100 µM (inactive) | > 100 µM (inactive) | > 100 µM (inactive) | > 100 µM (inactive) | > 100 µM (inactive) | > 100 µM (inactive) | > 100 µM (inactive) | > 100 µM (inactive) | > 100 µM (inactive) | > 100 µM (inactive) | > 100 µM (inactive) | > 100 µM (inactive) | > 100 µM (inactive) | > 100 µM (inactive) | > 100 µM (inactive) | 43.6 µM (inactive) | > 100 µM (inactive) |  | > 100 µM (inactive) |
